Literature values, collected in patent US8431154B2, “Oral dosage form containing a PDE 4 inhibitor as an active ingredient and polyvinylpyrrolidone as excipient” (Takeda GmbH, priority 2002, dated 2013).

Details: as referred to for U.S. Pat. No. 5,286,494

- solubility: solubility is slight
SMILES: COc1ccc(C2CNC(=O)C2)cc1OC1CCCC1 (stereo not shown) [Rolipram]
